Assay results published in patent publication US20260217701A1, “SELECTIVE BET INHIBITORS AND USES THEREOF” (Tay Therapeutics Limited, priority 2022, published 2026).
“And” between values parts separate entries of the source, which are not always exact repeats. Equal values may be shown once.

Test: Dog PK study #3 (Compound A PO once daily 5 days, 5/10/20 mg/kg; PK, body weight, hematology)
Type: in vivo, beagle dogs
Design: Plasma Concentration: unit not given here
Protocol: For the third dog pharmacokinetic study, three solutions of different concentrations of Compound A were prepared in 5% DMSO/15% PEG-400/80% (10% VE-TPGS) as outlined in Table 2E. The Compound A solutions were administered to animals orally (PO) once daily over a five-day period. Body weight was recorded prior to dosing, and detailed clinical observations were made prior to dosing and throughout the study, as needed.
Animals were divided into Day 1 and Day 5 sample collection groups, with animals in the Day 1 collection group having blood samples taken prior to dosing and at 0.25, 0.5, 1, 2, 4, 8, and 24 hours after dosing on day 1. Animals in the Day 5 collection group having blood samples taken prior to dosing and at 0.25, 0.5, 1, 2, 4, 8, and 24 hours after dosing on day 5. Study groups are outlined in Table 3D.
Blood samples (~0.3 mL) were collected on day according to the following schedule (0.25, 0.5, 1, 2, 4, 8, and 24 h) after day 5 administration of Compound A by venipuncture of peripheral veins except for the dosing vein, and EDTA-K2 was used as anticoagulant. Within 30 minutes of collection, the samples were centrifuged at approximately 2000 times g-force for 10 minutes at 4° C. to obtain blood plasma. The plasma samples were immediately divided into two aliquots (~75 μL each), transferred to a cryogenic vial, and stored in a freezer at −75±15° C. prior to analysis.
The concentration of Compound A in the blood plasma was determined through LC-MS as previously described. Briefly, the experiments were conducted on a DMPK-LCMS-14-SMBA Triple Quad 6500 Plus instrument with an ACQUITY UPLC BEH C18 1.7 μm (50×2.1 mm) column. The matrix was male beagle dog plasma potassium (K2) EDTA A gradient of 95% water (0.1% formic acid and 2 mM HCOONH4)/95% acetonitrile (0.1% formic acid and 2 mM HCOONH4) was used as the mobile phase. The sample flow rate was 0.6 mL/min.
The samples were then vortex-mixed for 10 minutes at 800 rpm and centrifuged for 15 minutes at 3220×g at 4° C. 50 μL aliquots of supernatant were transferred to a clean 96-well plate and centrifuged for 5 minutes at 3220×g at 4° C. Samples were then injected into the LC/MS/MS system for quantitative analysis.
The gathered data were used for pharmacokinetic calculations using T1/2, CO, AUClast, AUCinf, MRTinf, Cl, Vss, and Number of Points for Regression as parameters.
The cell composition (hematology) of blood samples was analyzed at day 5. Analyses identified the total number of white blood cells, neutrophils, lymphocytes, monocytes, eosinophils, basophils, and platelets in collected samples.

[1] = Day 1, 5 mg/kg dose PO, individual animals
[2] = Day 1, 10 mg/kg dose PO, individual animals
[3] = Day 1, 20 mg/kg dose PO, individual animals

**Q.** With Cn1cc(-c2ccccc2)c(-c2cn(C)c(=O)c3[nH]c(-c4cnn(C(F)(F)F)c4)cc23)cc1=O [Compound A, 6-methyl-4-(1-methyl-2-oxo-5-phenyl-1,2-dihydropyridin-4-yl)-2-(1-(trifluoromethyl)-1H-pyrazol-4-yl)-1,6-dihydro-7H-pyrrolo[2,3-c]pyridin-7-one] as the molecule, how does the “Plasma Concentration” value (Day 1, 5 mg/kg dose PO, time 0, individual animals) read?
**A.** BQL

**Q.** What about the “Plasma Concentration” value (Day 1, 5 mg/kg dose PO, time 0.25, individual animals) of the same molecule?
**A.** 9.79 and 28.1

**Q.** What about the “Plasma Concentration” value (Day 1, 5 mg/kg dose PO, time 0.25, mean) of the same molecule?
**A.** 18.9

**Q.** What about the “Plasma Concentration” value (Day 1, 5 mg/kg dose PO, time 0.5, individual animals) of the same molecule?
**A.** 206 and 326

**Q.** And the “Plasma Concentration” value (Day 1, 5 mg/kg dose PO, time 0.5, mean)?
**A.** 266

**Q.** And the “Plasma Concentration” value (Day 1, 5 mg/kg dose PO, time 1, individual animals)?
**A.** 523 and 590

**Q.** What about the “Plasma Concentration” value (Day 1, 5 mg/kg dose PO, time 1, mean) of the same molecule?
**A.** 557

**Q.** What about the “Plasma Concentration” value (Day 1, 5 mg/kg dose PO, time 2, individual animals) of the same molecule?
**A.** 587 and 671

**Q.** What about the “Plasma Concentration” value (Day 1, 5 mg/kg dose PO, time 2, mean) of the same molecule?
**A.** 629

**Q.** What about the “Plasma Concentration” value (Day 1, 5 mg/kg dose PO, time 4, individual animals) of the same molecule?
**A.** 765 and 686

**Q.** And the “Plasma Concentration” value (Day 1, 5 mg/kg dose PO, time 4, mean)?
**A.** 726

**Q.** What about the “Plasma Concentration” value (Day 1, 5 mg/kg dose PO, time 8, individual animals) of the same molecule?
**A.** 785 and 424

**Q.** And the “Plasma Concentration” value (Day 1, 5 mg/kg dose PO, time 8, mean)?
**A.** 605

**Q.** And the “Plasma Concentration” value (Day 1, 5 mg/kg dose PO, time 24, individual animals)?
**A.** 166 and 58.7

**Q.** And the “Plasma Concentration” value (Day 1, 5 mg/kg dose PO, time 24, mean)?
**A.** 112

**Q.** What about the AUC0-last [1] of the same molecule?
**A.** 7398 ng·h/mL

**Q.** What about the AUCExtra [1] of the same molecule?
**A.** 6.05%

**Q.** What about the AUMCExtra [1] of the same molecule?
**A.** 20.9%

**Q.** And the Cl_F [1]?
**A.** 10.6 mL/min/kg

**Q.** And the Cmax [1]?
**A.** 686 ng/mL

**Q.** What about the MRT0-last [1] of the same molecule?
**A.** 7.83 h

**Q.** And the Tlast [1]?
**A.** 24.0 h

**Q.** What about the Vz_F [1] of the same molecule?
**A.** 5.16 L/kg

**Q.** And the AUC0-last (Day 1, 5 mg/kg dose PO, mean)?
**A.** 9495 ng·h/mL

**Q.** What about the Tlast (Day 1, 5 mg/kg dose PO, mean) of the same molecule?
**A.** 24.0 h

**Q.** And the “Plasma Concentration” value (Day 1, 10 mg/kg dose PO, time 0, individual animals)?
**A.** BQL

**Q.** And the “Plasma Concentration” value (Day 1, 10 mg/kg dose PO, time 0.25, individual animals)?
**A.** 310 and 258

**Q.** What about the “Plasma Concentration” value (Day 1, 10 mg/kg dose PO, time 0.25, mean) of the same molecule?
**A.** 284

**Q.** And the “Plasma Concentration” value (Day 1, 10 mg/kg dose PO, time 0.5, individual animals)?
**A.** 948 and 954

**Q.** What about the “Plasma Concentration” value (Day 1, 10 mg/kg dose PO, time 0.5, mean) of the same molecule?
**A.** 951

**Q.** And the “Plasma Concentration” value (Day 1, 10 mg/kg dose PO, time 1, individual animals)?
**A.** 1330 and 1260

**Q.** And the “Plasma Concentration” value (Day 1, 10 mg/kg dose PO, time 1, mean)?
**A.** 1295

**Q.** What about the “Plasma Concentration” value (Day 1, 10 mg/kg dose PO, time 2, individual animals) of the same molecule?
**A.** 1820 and 1450

**Q.** What about the “Plasma Concentration” value (Day 1, 10 mg/kg dose PO, time 2, mean) of the same molecule?
**A.** 1635

**Q.** And the “Plasma Concentration” value (Day 1, 10 mg/kg dose PO, time 4, individual animals)?
**A.** 2010 and 1380

**Q.** And the “Plasma Concentration” value (Day 1, 10 mg/kg dose PO, time 4, mean)?
**A.** 1695

**Q.** What about the “Plasma Concentration” value (Day 1, 10 mg/kg dose PO, time 8, individual animals) of the same molecule?
**A.** 1080 and 860

**Q.** And the “Plasma Concentration” value (Day 1, 10 mg/kg dose PO, time 8, mean)?
**A.** 970

**Q.** What about the “Plasma Concentration” value (Day 1, 10 mg/kg dose PO, time 24, individual animals) of the same molecule?
**A.** 138 and 134

**Q.** What about the “Plasma Concentration” value (Day 1, 10 mg/kg dose PO, time 24, mean) of the same molecule?
**A.** 136

**Q.** What about the AUC0-last [2] of the same molecule?
**A.** 15568 ng·h/mL

**Q.** What about the AUC(0-inf) [2] of the same molecule?
**A.** 16719 ng·h/mL

**Q.** What about the AUCExtra [2] of the same molecule?
**A.** 5.08% and 6.88%

**Q.** What about the AUMCExtra [2] of the same molecule?
**A.** 18.2% and 23.5%

**Q.** What about the Cl_F [2] of the same molecule?
**A.** 8.12 mL/min/kg and 9.97 mL/min/kg

**Q.** What about the Cmax [2] of the same molecule?
**A.** 1450 ng/mL

**Q.** And the MRT0-inf [2]?
**A.** 9.54 h

**Q.** And the MRT0-last [2]?
**A.** 7.84 h

**Q.** What about the Tlast [2] of the same molecule?
**A.** 24.0 h

**Q.** And the T½ [2]?
**A.** 5.95 h

**Q.** What about the Vz_F [2] of the same molecule?
**A.** 3.68 L/kg and 5.14 L/kg

**Q.** And the AUC0-last (Day 1, 10 mg/kg dose PO, mean)?
**A.** 17527 ng·h/mL

**Q.** And the AUCExtra (Day 1, 10 mg/kg dose PO, mean)?
**A.** 5.98%

**Q.** What about the AUMCExtra (Day 1, 10 mg/kg dose PO, mean) of the same molecule?
**A.** 20.9%

**Q.** What about the Cl_F (Day 1, 10 mg/kg dose PO, mean) of the same molecule?
**A.** 9.04 mL/min/kg

**Q.** And the Tlast (Day 1, 10 mg/kg dose PO, mean)?
**A.** 24.0 h

**Q.** What about the Vz_F (Day 1, 10 mg/kg dose PO, mean) of the same molecule?
**A.** 4.41 L/kg

**Q.** And the “Plasma Concentration” value (Day 1, 20 mg/kg dose PO, time 0, individual animals)?
**A.** BQL

**Q.** What about the “Plasma Concentration” value (Day 1, 20 mg/kg dose PO, time 0.25, individual animals) of the same molecule?
**A.** 413 and 438

**Q.** What about the “Plasma Concentration” value (Day 1, 20 mg/kg dose PO, time 0.25, mean) of the same molecule?
**A.** 426

**Q.** And the “Plasma Concentration” value (Day 1, 20 mg/kg dose PO, time 0.5, individual animals)?
**A.** 2090 and 1440

**Q.** What about the “Plasma Concentration” value (Day 1, 20 mg/kg dose PO, time 0.5, mean) of the same molecule?
**A.** 1765

**Q.** What about the “Plasma Concentration” value (Day 1, 20 mg/kg dose PO, time 1, individual animals) of the same molecule?
**A.** 3430 and 3440

**Q.** And the “Plasma Concentration” value (Day 1, 20 mg/kg dose PO, time 1, mean)?
**A.** 3435

**Q.** What about the “Plasma Concentration” value (Day 1, 20 mg/kg dose PO, time 2, individual animals) of the same molecule?
**A.** 3620 and 5590

**Q.** And the “Plasma Concentration” value (Day 1, 20 mg/kg dose PO, time 2, mean)?
**A.** 4605

**Q.** And the “Plasma Concentration” value (Day 1, 20 mg/kg dose PO, time 4, individual animals)?
**A.** 4330 and 6000

**Q.** And the “Plasma Concentration” value (Day 1, 20 mg/kg dose PO, time 4, mean)?
**A.** 5165

**Q.** And the “Plasma Concentration” value (Day 1, 20 mg/kg dose PO, time 8, individual animals)?
**A.** 3170 and 4570

**Q.** What about the “Plasma Concentration” value (Day 1, 20 mg/kg dose PO, time 8, mean) of the same molecule?
**A.** 3870

**Q.** And the “Plasma Concentration” value (Day 1, 20 mg/kg dose PO, time 24, individual animals)?
**A.** 394 and 1810

**Q.** What about the “Plasma Concentration” value (Day 1, 20 mg/kg dose PO, time 24, mean) of the same molecule?
**A.** 1102

**Q.** And the AUC0-last [3]?
**A.** 86304 ng·h/mL

**Q.** And the AUC(0-inf) [3]?
**A.** 52608 ng·h/mL and 116806 ng·h/mL

**Q.** And the AUCExtra [3]?
**A.** 6.10% and 26.1%

**Q.** And the AUMCExtra [3]?
**A.** 20.3% and 58.8%

**Q.** What about the Cl_F [3] of the same molecule?
**A.** 6.34 mL/min/kg and 2.85 mL/min/kg
